Columns and labels:
[1] = Prodrug stability in freshly withdrawn porcine intestinal fluid; assay type: in vitro ADME; settings: for Prodrug remaining at 3 h: porcine intestinal fluid pH 6.8, 37° C., in % (unit assumed)
Description: Many of the peptidases in the intestinal lumen may not be present in the USP simulated intestinal fluid preparations previously described. […] The prodrugs evaluated were selected on the basis of adequate pharmacokinetics (see Example 8).

[2] = Prodrug stability in simulated intestinal fluid; settings: 37° C., pH 6.8, HPLC
Description: (§1) The remaining concentrations of the prodrugs were then assayed by H PLC.

[3] = Prodrug stability in simulated gastric fluid; settings: 37° C., pH 1.1, HPLC
Description: as §1

[4] = Comparative pharmacokinetic screening study in the monkey (relative Cmax of guanfacine); settings: oral gavage, monkey screening study
Description: Blood samples were taken on 4 sampling occasions at various times up to 6 hours after administration and submitted to analysis for the parent drug and prodrug using a qualified LC-MS-MS assay.

| Compound | Prodrug remaining at 3 h [1] | % prodrug remaining following incubation for 2 h in simulated intestinal fluid pH 6.8 [2] [%] | % prodrug remaining following incubation for 1 h in simulated gastric fluid pH 1.1 [3] [%] | prodrug levels in plasma (in words) [4] | stability in porcine intestinal fluid (in words) [1] |
| --- | --- | --- | --- | --- | --- |
| CNCC(=O)N[C@@H](CCC(=O)NC(=N)NC(=O)Cc1c(Cl)cccc1Cl)C(=O)O [Compound 7, Guanfacine ((S)-γ-Glutamate-Sarcocine) Amide] | 48.9 ± 0.8 | 66 | 79 | – | – |
| CN(CC(=O)O)C(=O)NC(=N)NC(=O)Cc1c(Cl)cccc1Cl [Compound 9, Guanfacine Sarcosine Urea] | – | 105 | 101 | high prodrug levels | – |
| O=C(O)CC[C@@H]1N=C(NC(=O)Cc2c(Cl)cccc2Cl)NC1=O [Compound 37, Guanfacine-(S)-Glutamic Cyclic Adduct] | – | 110 | 58 | high prodrug levels | – |
| C[C@H]1N=C(NC(=O)Cc2c(Cl)cccc2Cl)NC1=O [Compound 51, Guanfacine-(R)-Alanine Cyclic Adduct] | – | 103 | 80 | – | – |
| N=C(NC(=O)Cc1c(Cl)cccc1Cl)NC(=O)c1ccc(N)cc1 [Compound 52, Guanfacine PABA Amide] | 87.77 ± 5.80 | 97 | 84 | – | high stability |
| N=C(NC(=O)Cc1c(Cl)cccc1Cl)NC(=O)Nc1ccc(C(=O)O)cc1 [Compound 53, Guanfacine PABA Urea] | – | 100 | 101 | – | – |
| CC(C)[C@@H](NC(=O)c1ccc(N)cc1)C(=O)NC(=N)NC(=O)Cc1c(Cl)cccc1Cl [Compound 55, Guanfacine ((R)-Valine-PABA) Amide] | – | 91 | 65 | – | – |
| N=C(NC(=O)CC[C@H](NC(=O)c1ccc(C(=O)O)cc1)C(=O)O)NC(=O)Cc1c(Cl)cccc1Cl [Compound 60, Guanfacine ((S)-γ-Glutamate-Terephthalic acid) Amide] | – | 97 | 81 | – | – |
| N=C(NC(=O)Cc1c(Cl)cccc1Cl)NC(=O)OC[C@H](NC(=O)CCN)C(=O)O [Compound 64, Guanfacine ((S)-Serine-β-Alanine) Carbamate] | – | 93 | 88 | – | – |
| N=C(NC(=O)Cc1c(Cl)cccc1Cl)NC(=O)OCC[C@H](N)C(=O)O [Compound 65, Guafacine (S)-Homoserine Carbamate] | – | 99 | 90 | – | – |
| CNCC(=O)N[C@@H](CCOC(=O)NC(=N)NC(=O)Cc1c(Cl)cccc1Cl)C(=O)O [Compound 66, Guanfacine ((S)-Homoserine-Sarcosine) Carbamate] | – | 101 | 86 | – | – |
| N=C(NC(=O)Cc1c(Cl)cccc1Cl)NC(=O)OCC[C@H](NC(=O)CCN)C(=O)O [Compound 67, Guanfacine ((S)- Homoserine-β-Alanine) Carbamate] | – | 97 | 99 | – | – |
| N=C(NC(=O)CC[C@H](NC(=O)c1ccc(N)cc1)C(=O)O)NC(=O)Cc1c(Cl)cccc1Cl [Compound 70, Guanfacine ((S)-γ-Glutamate-PABA) Amide] | – | 93 | 64 | – | – |

Next, values leading:

| Prodrug remaining at 3 h [1] | % prodrug remaining following incubation for 2 h in simulated intestinal fluid pH 6.8 [2] [%] | % prodrug remaining following incubation for 1 h in simulated gastric fluid pH 1.1 [3] [%] | prodrug levels in plasma (in words) [4] | stability in porcine intestinal fluid (in words) [1] | Compound |
| --- | --- | --- | --- | --- | --- |
| 91.3 ± 2.6 | 104 | 79 | detectable prodrug levels in plasma | high stability | CC(C)[C@@H](N)C(=O)NCCC(=O)NC(=N)NC(=O)Cc1c(Cl)cccc1Cl [Compound 11, Guanfacine (β-Alanine-(R)-Valine) Amide] |
| 13.8 ± 0.6 | 91 | 97 | – | very unstable | CC(C)[C@H](N)C(=O)NCCOC(=O)NC(=N)NC(=O)Cc1c(Cl)cccc1Cl [Compound 26, Guanfacine (Ethanolamine-(S)-Valine) Carbamate] |
| – | 81 | 85 | – | – | CCC(C)[C@@H](N)C(=O)NCCCC(=O)NC(=N)NC(=O)Cc1c(Cl)cccc1Cl (stereo partly drawn) [Compound 50, Guanfacine (GABA-(R)-Isoleucine) Amide] |
| – | 66 | 73 | – | – | CC(C)[C@@H](N)C(=O)N[C@@H](C(=O)NC(=N)NC(=O)Cc1c(Cl)cccc1Cl)C(C)C [Compound 54, Guanfacine ((R)-Valine-(R)-Valine) Amide] |
| – | 111 | 70 | – | – | CC(C)[C@H](N)C(=O)NCCCC(=O)NC(=N)NC(=O)Cc1c(Cl)cccc1Cl [Compound 56, Guanfacine (GABA-(S)-Valine) Amide] |
| – | 106 | 81 | – | – | N=C(NC(=O)CCCNC(=O)CC[C@H](N)C(=O)O)NC(=O)Cc1c(Cl)cccc1Cl [Compound 57, Guanfacine (GABA-(S)-γ-Glutamate) Amide] |
| 81.26 ± 4.57 | 99 | 96 | – | – | N=C(NC(=O)Cc1c(Cl)cccc1Cl)NC(=O)OCCNC(=O)CC[C@H](N)C(=O)O [Compound 58, Guanfacine (Ethanolamine-(S)-γ-Glutamate) Carbamate] |
| – | 100 | 92 | – | – | CC[C@H](C)[C@H](N)C(=O)NCCOC(=O)NC(=N)NC(=O)Cc1c(Cl)cccc1Cl [Compound 59, Guanfacine (Ethanolamine-(S)-Isoleucine) Carbamate] |
| – | 75 | 86 | – | – | CC(C)(COC(=O)NC(=N)NC(=O)Cc1c(Cl)cccc1Cl)[C@@H](O)C(=O)NCCC(=O)O [Compound 68, Guanfacine Pantothenic acid Carbamate] |
| – | 96 | 85 | – | – | CC(C)(CO)[C@@H](O)C(=O)NCCCOC(=O)NC(=N)NC(=O)Cc1c(Cl)cccc1Cl [Compound 69, Guanfacine Panthenol Carbamate] |
| – | 89 | 91 | – | – | CNCC(=O)NCCOC(=O)NC(=N)NC(=O)Cc1c(Cl)cccc1Cl [Compound 71, Guanfacine (Ethanolamine-Sarcosine) Carbamate] |

Source: patent publication US20110065796A1 (SHIRE LLC, priority 2009, published 2011)
